Assay results reported in PMC5562305, “Impact of novel palmitoylated prolactin-releasing peptide analogs on metabolic changes in mice with diet-induced obesity” (PLoS ONE, 2017).
Several values for one entry are separate records, joined by “and”; a condition that tells them apart may be missing. Equal entries are not always repeated. Where two headings read alike, the source gives them in different places. Starred links: 1 amine or outer side, 2 acyl side, 3 side chain; linkers in the order of their positions; H or OH if unused. Residues, ends and D or L forms follow the SMILES beside them. Groups on a side chain read outwards from the residue. *: point of attachment. TTDA(Palmitoyl) = CCCCCCCCCCCCCCCC(=O)NCCCOCCOCCOCCCN*; γGlu = O=C(O)[C@H](CCC(=O)[*:2])N[*:1]; Palmitoyl = CCCCCCCCCCCCCCCC(=O)*; Suc = O=C(CCC(=O)[*:2])[*:1]

Legend:
human NPFF2 = biological target: T1, human NPFF2 (Homo sapiens, UniProt Q9Y5X5); assay: Competitive binding of 125I-1DMe to human NPFF2 receptor membranes; details: for % binding human PrRP31 (NPFF2): Ki relative to human PrRP31 = 100
T1 construct: purchased Perkin Elmer; host or cells: CHO-K1 cell membranes
Protocol: (§1) CHO-K1 cells expressing the GPR10 receptor (Thermo Fisher Scientific Inc., Waltham, MA, USA) were grown according to the manufacturer's instructions. Saturation and competitive binding experiments were performed according to the methods of Motulsky and Neubig. […] The experiments were performed on plated cells that were incubated for 60 min at 25°C. Non-specific binding was determined using 10^−5 M PrRP31. The binding assays involving human NPFF2 receptor membranes obtained from Perkin Elmer were performed as described in [18].
(§2) Data are presented as the means ± SEM. The competitive binding curves were plotted using GraphPad software (San Diego, CA, USA), and the best fits were compared for single-binding-site models (IC50 values were obtained from nonlinear regression analysis). Inhibition constants (Ki) were calculated from the IC50 values using the Cheng-Prusoff equation [23]. The concentration of the radioligand was 0.1 nM for cell membranes of CHO-K1 cells overexpressing NPFF2 and 0.03 nM for CHO-K1 cells overexpressing GPR10.

[1] = Cumulative food intake of DIO mice during 2-week SC treatment; type: in vivo, C57BL/6 mice; details: two weeks of SC treatment, 5 mg/kg twice a day, in words
Source text: (§3) Inbred C57BL/6 male mice that were 3 weeks old were obtained from Charles River Laboratories (Sulzfeld, Germany). […] From 8 weeks of age, the mice were fed in house made high-fat (HF) diet to induce obesity. […] After twelve weeks of HF-diet feeding, two weeks of SC administration of lipidized PrRP analogs was initiated while the mice were kept on the HF diet. The following experimental groups were established: […] Food intake and BW were monitored daily during the dosing period.

[2] = Body weight of DIO mice during 2-week SC treatment; type: in vivo, C57BL/6 mice; details: for Decrease of average BW at the end of the experiment: 5 mg/kg SC twice a day, 2 weeks
Source text: as §3

[3] = Hormonal and biochemical (metabolic) parameters in blood of DIO mice; type: in vivo, C57BL/6 mice; details: mean ± SEM; for Glucose: blood; for Glucose / FFA / Insulin / Leptin / T Chol (total cholesterol) / Triglycerides: 5 mg/kg SC twice a day, 2 weeks; for HOMA index: fasting glucose x fasting insulin / 22.5, 2 weeks; for FFA / Insulin / Leptin / T Chol (total cholesterol) / Triglycerides: plasma
Source text: From 8 weeks of age, the mice were fed in house made high-fat (HF) diet to induce obesity. […] After twelve weeks of HF-diet feeding, two weeks of SC administration of lipidized PrRP analogs was initiated while the mice were kept on the HF diet. The following experimental groups were established: […] Food intake and BW were monitored daily during the dosing period. At the end of the experiment, the mice were sacrificed by decapitation. The trunk blood was collected, and the blood plasma was separated and stored at -20°C. The visceral adipose tissues (VAT) (from abdominal part), subcutaneous adipose tissues (SCAT) (all adipose tissue depots under the skin), perirenal adipose tissues, interscapular brown adipose tissues (BAT), and livers of all of the mice were dissected, weighed, flash-frozen in liquid nitrogen, and stored at -70°C for later extraction of RNA. The plasma insulin concentrations were measured using an RIA assay (Millipore, St. Charles, MI, USA), and the leptin concentrations were determined by ELISA (Millipore, St. Charles, MI, USA). The blood glucose levels were measured using a Glucocard glucometer (Arkray, Kyoto, Japan). The plasma triglyceride levels were measured using a quantitative enzymatic reaction (Sigma, St. Louis, MO, USA), and the free fatty acids (FFA) levels were determined using a colorimetric assay (Roche, Mannheim, Germany). Cholesterol was determined by colorimetric assay (Erba Lachema, Brno, Czech Republic). All measurements were performed according to the manufacturer's instructions.

GPR10 [4] = biological target: T2, GPR10 (Homo sapiens, UniProt P49683); assay: Competitive binding of 125I-human PrRP31 to plated CHO-K1 cells expressing GPR10; design: host or cells: CHO-K1; details: for Ki: CHO-K1 cells, 0.03 nM radioligand, 60 min 25°C, Cheng-Prusoff, mean ± SEM of at least three experiments, SEM; for % binding human PrRP31 (GPR10): Ki relative to human PrRP31 = 100; for 125I-human PrRP31 binding to human GPR10, Ki: single experiments (replicates listed below each other)
T2 sequence (P49683 1-370): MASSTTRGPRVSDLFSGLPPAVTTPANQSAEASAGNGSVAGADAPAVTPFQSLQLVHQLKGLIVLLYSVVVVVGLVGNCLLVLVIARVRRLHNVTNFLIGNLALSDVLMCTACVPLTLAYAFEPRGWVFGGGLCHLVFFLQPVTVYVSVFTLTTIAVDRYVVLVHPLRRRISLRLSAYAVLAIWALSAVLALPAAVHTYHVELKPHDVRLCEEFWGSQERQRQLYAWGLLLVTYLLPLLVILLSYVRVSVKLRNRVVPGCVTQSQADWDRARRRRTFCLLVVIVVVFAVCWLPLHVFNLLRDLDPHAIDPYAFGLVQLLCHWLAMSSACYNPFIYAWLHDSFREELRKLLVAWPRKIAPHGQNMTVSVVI
Protocol: as §1, §2

GPR10 [5] = biological target: T2, GPR10; assay: Beta-lactamase-dependent FRET assay (bla reporter gene) in CHO-K1 cells overexpressing GPR10; type: cell-based; design: expressed in transfected cells; host or cells: CHO-K1
Protocol: CHO-K1 cells overexpressing GPR10 were plated at 40,000 cells/well in 128 μl of assay medium (DMEM containing 10% dialyzed FBS, 0.1 mM NEAA, 25 mM HEPES, 1% penicillin/streptomycin, and 2 mM L-glutamine) in a 96-well plate and were incubated for 20 h at 37°C/5% CO2. The assay was performed according to the manufacturer's protocol.
The results from the lactamase assay were analyzed using nonlinear regression by log agonist vs. response using GraphPad software.

[6] = average of the single experiments, read-out: Activation of bla reporter gene in GPR10 overexpressing cells, EC50, AVERAGE
[7] = average of the single experiments

T1 sequence (Q9Y5X5 whole entry): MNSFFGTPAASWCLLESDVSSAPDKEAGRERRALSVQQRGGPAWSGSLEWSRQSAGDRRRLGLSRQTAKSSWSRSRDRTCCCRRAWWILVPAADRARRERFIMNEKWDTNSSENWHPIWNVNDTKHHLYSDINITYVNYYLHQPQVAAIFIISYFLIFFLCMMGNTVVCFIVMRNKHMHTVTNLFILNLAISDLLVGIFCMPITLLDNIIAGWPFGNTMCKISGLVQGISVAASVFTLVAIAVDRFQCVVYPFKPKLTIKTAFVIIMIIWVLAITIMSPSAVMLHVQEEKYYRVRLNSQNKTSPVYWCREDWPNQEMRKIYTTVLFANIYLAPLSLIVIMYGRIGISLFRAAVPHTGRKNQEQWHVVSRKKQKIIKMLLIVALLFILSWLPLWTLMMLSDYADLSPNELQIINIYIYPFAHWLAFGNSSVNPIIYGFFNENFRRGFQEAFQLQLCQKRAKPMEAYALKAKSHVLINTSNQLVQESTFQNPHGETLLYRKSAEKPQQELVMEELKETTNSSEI

Row | Structure (SMILES) | % binding human PrRP31 (NPFF2) (human NPFF2) [%] | Ki (human NPFF2; membranes of CHO-K1 cells overexpressing NPFF2, 0.1 nM radioligand, Cheng-Prusoff, mean ± SEM, SEM) [nM] | Food intake compared to the saline-treated control group [1] | Decrease of average BW at the end of the experiment [2] [%] | Glucose [3] [mmol/L] | HOMA index [3] | FFA [3] [mmol/L] | Insulin [3] [ng/mL] | Leptin [3] [ng/mL] | T Chol (total cholesterol) [3] [mmol/L] | Triglycerides [3] [mg/mL] | Ki (GPR10 [4]) [nM] | % binding human PrRP31 (GPR10) (GPR10 [4]) [%] | 125I-human PrRP31 binding to human GPR10, Ki (GPR10 [4]) | EC50 (GPR10 [5]; [6]) [nM] | Ki (human NPFF2; [7]) [nM] | Effect on BW ([2]; two weeks of SC treatment, 5 mg/kg twice a day, in words) | EC50 (GPR10 [5]; CHO-K1 cells, mean ± SEM of at least three experiments, SEM, read-out: Activation of bla reporter gene in GPR10 overexpressing cells, EC50) [nM]
1 | CCCCCCCCCCCCCCCC(=O)N[C@@H](CCC(=O)NCCCC[C@H](NC(=O)[C@@H](NC(=O)[C@H](CCC(=O)O)NC(=O)[C@H](CCSC)NC(=O)[C@H](CO)NC(=O)[C@H](Cc1c[nH]cn1)NC(=O)[C@H](CCCNC(=N)N)NC(=O)[C@H](Cc1c[nH]cn1)NC(=O)[C@@H](NC(=O)[C@H](CCCNC(=N)N)NC(=O)[C@@H](N)CO)[C@@H](C)O)[C@@H](C)CC)C(=O)N[C@H](C(=O)N1CCC[C@H]1C(=O)N[C@@H](CC(=O)O)C(=O)N[C@H](C(=O)N[C@@H](CC(N)=O)C(=O)N1CCC[C@H]1C(=O)N[C@@H](C)C(=O)N[C@@H](Cc1c[nH]c2ccccc12)C(=O)N[C@@H](Cc1ccc(O)cc1)C(=O)N[C@@H](C)C(=O)N[C@@H](CO)C(=O)N[C@@H](CCCNC(=N)N)C(=O)NCC(=O)N[C@H](C(=O)N[C@@H](CCCNC(=N)N)C(=O)N1CCC[C@H]1C(=O)N[C@H](C(=O)NCC(=O)N[C@@H](CCCNC(=N)N)C(=O)N[C@@H](Cc1ccccc1)C(N)=O)C(C)C)[C@@H](C)CC)[C@@H](C)CC)[C@@H](C)O)C(=O)O [analog 1] (H-SRTHRHSMEIK([γGlu-Palmitoyl])TPDINPAWYASRGIRPVGRF-NH2; N-terminus assumed) | 128 | 39.1 ± 23.1 | did not reach statistical significance | 12 | 7.12 ± 0.36 | 85.70 ± 0.39 | 0.54 ± 0.03 | 1.57 ± 0.14 | 22.67 ± 2.72 | 4.26 ± 0.22 | 0.44 ± 0.03 | 5.01 ± 1.03 | 91 | 9.92 nM and 5.47 nM and 4.23 nM and 3.01 nM and 1.75 nM and 3.77 nM and 6.96 nM | 0.0463 | – | – | –
2 | CCCCCCCCCCCCCCCC(=O)NCCCOCCOCCOCCCNC(=O)CCC(=O)NCCCC[C@H](NC(=O)[C@@H](NC(=O)[C@H](CCC(=O)O)NC(=O)[C@H](CCSC)NC(=O)[C@H](CO)NC(=O)[C@H](Cc1c[nH]cn1)NC(=O)[C@H](CCCNC(=N)N)NC(=O)[C@H](Cc1c[nH]cn1)NC(=O)[C@@H](NC(=O)[C@H](CCCNC(=N)N)NC(=O)[C@@H](N)CO)[C@@H](C)O)[C@@H](C)CC)C(=O)N[C@H](C(=O)N1CCC[C@H]1C(=O)N[C@@H](CC(=O)O)C(=O)N[C@H](C(=O)N[C@@H](CC(N)=O)C(=O)N1CCC[C@H]1C(=O)N[C@@H](C)C(=O)N[C@@H](Cc1c[nH]c2ccccc12)C(=O)N[C@@H](Cc1ccc(O)cc1)C(=O)N[C@@H](C)C(=O)N[C@@H](CO)C(=O)N[C@@H](CCCNC(=N)N)C(=O)NCC(=O)N[C@H](C(=O)N[C@@H](CCCNC(=N)N)C(=O)N1CCC[C@H]1C(=O)N[C@H](C(=O)NCC(=O)N[C@@H](CCCNC(=N)N)C(=O)N[C@@H](Cc1ccccc1)C(N)=O)C(C)C)[C@@H](C)CC)[C@@H](C)CC)[C@@H](C)O [analog 2] (H-SRTHRHSMEIK([Suc-TTDA(Palmitoyl)])TPDINPAWYASRGIRPVGRF-NH2; N-terminus assumed) | 761 | – | significantly reduced | 11.75 | 7.26 ± 0.31 | 86.27 ± 0.64 | 0.52 ± 0.02 | 1.55 ± 0.27 | 23.64 ± 3.54 | 3.96 ± 0.26 | 0.44 ± 0.04 | 3.79 ± 0.47 | 121 | 4.698 nM and 3.31 nM and 3.352 nM | 0.0835 | 6.57 | – | –
3 | CCCCCCCCCCCCCCCC(=O)NCCCOCCOCCOCCCNC(=O)CCC(=O)NCCCC[C@H](NC(=O)[C@@H](NC(=O)[C@H](CCC(=O)O)NC(=O)[C@H](CCSC)NC(=O)[C@H](CO)NC(=O)[C@H](Cc1c[nH]cn1)NC(=O)[C@H](CCCNC(=N)N)NC(=O)[C@H](Cc1c[nH]cn1)NC(=O)[C@@H](NC(=O)[C@H](CCCNC(=N)N)NC(=O)[C@H](CO)NC(=O)CCC(=O)NCCCOCCOCCOCCCNC(=O)CCCCCCCCCCCCCCC)[C@@H](C)O)[C@@H](C)CC)C(=O)N[C@H](C(=O)N1CCC[C@H]1C(=O)N[C@@H](CC(=O)O)C(=O)N[C@H](C(=O)N[C@@H](CC(N)=O)C(=O)N1CCC[C@H]1C(=O)N[C@@H](C)C(=O)N[C@@H](Cc1c[nH]c2ccccc12)C(=O)N[C@@H](Cc1ccc(O)cc1)C(=O)N[C@@H](C)C(=O)N[C@@H](CO)C(=O)N[C@@H](CCCNC(=N)N)C(=O)NCC(=O)N[C@H](C(=O)N[C@@H](CCCNC(=N)N)C(=O)N1CCC[C@H]1C(=O)N[C@H](C(=O)NCC(=O)N[C@@H](CCCNC(=N)N)C(=O)N[C@@H](Cc1ccccc1)C(N)=O)C(C)C)[C@@H](C)CC)[C@@H](C)CC)[C@@H](C)O [analog 3] ({TTDA(Palmitoyl)-Suc}-SRTHRHSMEIK([Suc-TTDA(Palmitoyl)])TPDINPAWYASRGIRPVGRF-NH2) | 580 | – | did not have any significant effects | – | 7.91 ± 0.46 | 163.13 ± 1.06 | 0.62 ± 0.03 | 2.69 ± 0.30 | 40.30 ± 5.57 | 4.86 ± 0.17 | 0.63 ± 0.05 | 32.4 ± 3.57 | 14 | 39 nM and 26.7 nM and 31.5 nM | – | 8.63 | did not have any significant effects | 0.284 ± 0.054
